Reference: PubChem BioAssay (NCI)
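Dose response: 5 concentrations. Exposure: 48 h. Format: 96-well plates. Endpoint: linear interpolation; highest concentration if not reached. The concentration for 50% growth inhibition is given as GI50. The concentration for full growth arrest is given as TGI.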

Columns and labels:
Experiment in all cases: NCI anticancer screen, dose series, 48 h
SF-268 CNS = tested on: SF-268 CNS
SK-MEL-5 melanoma = tested on: SK-MEL-5 melanoma
OVCAR-5 ovarian = tested on: OVCAR-5 ovarian
HCT-15 colon = tested on: HCT-15 colon
CAKI-1 renal = tested on: CAKI-1 renal
SNB-75 CNS = tested on: SNB-75 CNS
RXF 393 renal = tested on: RXF 393 renal
DU-145 prostate = tested on: DU-145 prostate
UO-31 renal = tested on: UO-31 renal
IGROV1 ovarian = tested on: IGROV1 ovarian
SR leukemia = tested on: SR leukemia
NCI-H23 lung = tested on: NCI-H23 lung
SNB-19 CNS = tested on: SNB-19 CNS
HS 578T breast = tested on: HS 578T breast
MCF7 breast = tested on: MCF7 breast
SK-MEL-2 melanoma = tested on: SK-MEL-2 melanoma
HCC-2998 colon = tested on: HCC-2998 colon
RPMI-8226 leukemia = tested on: RPMI-8226 leukemia
SK-OV-3 ovarian = tested on: SK-OV-3 ovarian
COLO 205 colon = tested on: COLO 205 colon
PC-3 prostate = tested on: PC-3 prostate
786-0 renal = tested on: 786-0 renal
NCI/ADR-RES ovarian = tested on: NCI/ADR-RES ovarian
MDA-MB-231 breast = tested on: MDA-MB-231 breast
T-47D breast = tested on: T-47D breast
HCT-116 colon = tested on: HCT-116 colon
U251 CNS = tested on: U251 CNS
NCI-H226 lung = tested on: NCI-H226 lung
OVCAR-8 ovarian = tested on: OVCAR-8 ovarian
SF-295 CNS = tested on: SF-295 CNS
EKVX NSCLC = tested on: EKVX NSCLC
SW-620 colon = tested on: SW-620 colon
HOP-62 NSCLC = tested on: HOP-62 NSCLC
A549 NSCLC = tested on: A549 NSCLC
SN12C renal = tested on: SN12C renal
ACHN renal = tested on: ACHN renal
OVCAR-4 ovarian = tested on: OVCAR-4 ovarian
SK-MEL-28 melanoma = tested on: SK-MEL-28 melanoma
LOX IMVI melanoma = tested on: LOX IMVI melanoma
TK-10 renal = tested on: TK-10 renal
UACC-257 melanoma = tested on: UACC-257 melanoma
NCI-H522 lung = tested on: NCI-H522 lung
NCI-H460 lung = tested on: NCI-H460 lung
HOP-92 NSCLC = tested on: HOP-92 NSCLC
MDA-MB-435 = tested on: MDA-MB-435
M14 melanoma = tested on: M14 melanoma
UACC-62 melanoma = tested on: UACC-62 melanoma
SF-539 CNS = tested on: SF-539 CNS
KM12 colon = tested on: KM12 colon
K-562 leukemia = tested on: K-562 leukemia

## COc1cc2cnc3c(c2c(OC)c1OC)Cc1cc2c(cc1-3)OCO2
SF-268 CNS
  GI50: 2.74 µM
  TGI: > 100 µM
SK-MEL-5 melanoma
  GI50: 0.682 µM
  TGI: 13.3 µM
OVCAR-5 ovarian
  GI50: > 40.8 µM
  TGI: > 100 µM
HCT-15 colon
  GI50: 0.102 µM
  TGI: > 32.3 µM
CAKI-1 renal
  GI50: 0.256 µM
  TGI: 1.76 µM
SNB-75 CNS
  GI50: > 100 µM
  TGI: > 100 µM
RXF 393 renal
  GI50: 10.9 µM
  TGI: 47.9 µM
DU-145 prostate
  GI50: > 36.1 µM
  TGI: > 100 µM
UO-31 renal
  GI50: 10.9 µM
  TGI: > 100 µM
IGROV1 ovarian
  GI50: 2.86 µM
  TGI: > 100 µM
SR leukemia
  GI50: 0.0491 µM
  TGI: 0.305 µM
NCI-H23 lung
  GI50: 2.3 µM
  TGI: > 100 µM
SNB-19 CNS
  GI50: > 100 µM
  TGI: > 100 µM
HS 578T breast
  GI50: 2.38 µM
  TGI: > 50.7 µM
MCF7 breast
  GI50: 1.32 µM
  TGI: > 24.8 µM
SK-MEL-2 melanoma
  GI50: 1.41 µM
  TGI: > 65.1 µM
HCC-2998 colon
  GI50: > 100 µM
  TGI: > 100 µM
RPMI-8226 leukemia
  GI50: 0.559 µM
  TGI: > 100 µM
SK-OV-3 ovarian
  GI50: 69.3 µM
  TGI: > 100 µM
COLO 205 colon
  GI50: 0.743 µM
  TGI: > 100 µM
PC-3 prostate
  GI50: 4.49 µM
  TGI: > 100 µM
786-0 renal
  GI50: 3.23 µM
  TGI: > 82.5 µM
NCI/ADR-RES ovarian
  GI50: 10.8 µM
  TGI: > 74.8 µM
MDA-MB-231 breast
  GI50: 0.71 µM
  TGI: > 27.8 µM
T-47D breast
  GI50: > 100 µM
  TGI: > 100 µM
HCT-116 colon
  GI50: 0.0694 µM
  TGI: > 100 µM
U251 CNS
  GI50: 0.31 µM
  TGI: > 21.8 µM
NCI-H226 lung
  GI50: 88.3 µM
  TGI: > 100 µM
OVCAR-8 ovarian
  TGI: > 29.4 µM
SF-295 CNS
  GI50: 0.591 µM
  TGI: > 32.8 µM
EKVX NSCLC
  GI50: 7.54 µM
  TGI: > 100 µM
SW-620 colon
  GI50: 1.35 µM
  TGI: > 100 µM
HOP-62 NSCLC
  GI50: 0.234 µM
  TGI: 10.9 µM
A549 NSCLC
  GI50: 2.64 µM
  TGI: > 100 µM
SN12C renal
  GI50: 0.602 µM
  TGI: > 100 µM
ACHN renal
  GI50: 0.243 µM
  TGI: > 29.1 µM
OVCAR-4 ovarian
  GI50: > 100 µM
  TGI: > 100 µM
SK-MEL-28 melanoma
  GI50: 42.6 µM
  TGI: > 100 µM
LOX IMVI melanoma
  GI50: 0.0789 µM
  TGI: > 100 µM
TK-10 renal
  GI50: 0.752 µM
  TGI: 2.9 µM
UACC-257 melanoma
  GI50: 0.99 µM
  TGI: > 100 µM
NCI-H522 lung
  GI50: 0.408 µM
  TGI: 3.46 µM
NCI-H460 lung
  GI50: 1.39 µM
  TGI: > 100 µM
HOP-92 NSCLC
  TGI: > 28.5 µM
MDA-MB-435
  GI50: 0.207 µM
  TGI: 0.446 µM
M14 melanoma
  GI50: 0.55 µM
  TGI: > 55.1 µM
UACC-62 melanoma
  GI50: 0.204 µM
  TGI: 11.2 µM
SF-539 CNS
  GI50: 0.869 µM
  TGI: 12 µM
KM12 colon
  GI50: 0.255 µM
  TGI: 0.874 µM
K-562 leukemia
  GI50: 0.156 µM
  TGI: > 87.9 µM
